Assay results published in ChEMBL document CHEMBL1201862, “PubChem BioAssay data set” (2004).
The source made the active and inactive calls.

Tests used:
[1] = Counterscreen for activators of the function of SWI/SNF related, matrix associated, actin dependent regulator of chromatin, subfamily a, member 2 (SMARCA2, BRM): Luminescence-based cell-based high throughput dose response assay to identify non-selective compounds using the VP16 reporter assay.; assay type: functional
[2] = target: SWI/SNF-related matrix-associated actin-dependent regulator of chromatin subfamily A member 2 (Homo sapiens, UniProt P51531); test: Luminescence-based cell-based high throughput dose response assay to identify activators of the function of SWI/SNF related, matrix associated, actin dependent regulator of chromatin, subfamily a, member 2 (SMARCA2, BRM).; assay type: functional
[3] = NIH3T3 cell viability loss – ATP luminescence, mouse fibroblasts, counter-screen, dose response (AID 2010); assay type: functional, cell-based; details: NIH3T3;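 note: cells exposed to compound for about 90 hours before reading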
[4] = Trypanosoma cruzi growth suppression in host cells – NIH3T3 host cells, beta-gal luminescence, confirmation (AID 2044); assay type: functional, cell-based;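 note: intracellular parasites grown in NIH/3T3 mouse fibroblasts as host cells; luminescent beta-galactosidase reporter signal from transgenic T. cruzi replicating inside host cells; inhibitors lower the luminescence signal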
Protein Rev = Protein Rev (Human immunodeficiency virus type 1 group M subtype B (isolate WMJ22)(HIV-1), UniProt P05866); test: inhibitors of Rev protein–RRE RNA complex – biochemical, protein-RNA interaction, dose response (AID 842); set-up: species or system Human immunodeficiency virus 1
[5] = target: T1, Long-chain-fatty-acid--AMP ligase FadD28 (Mycobacterium tuberculosis, UniProt P9WQ59); test: Fluorescence polarization aasay to screen for inhibitors that compete for the binding of FadD28 to a bisubstrate Measured in Biochemical System Using Plate Reader - 2147-01_Inhibitor_Dose_CherryPick_Activity.; assay type: functional, Mycobacterium tuberculosis H37Rv
T1 sequence (P9WQ59 whole entry): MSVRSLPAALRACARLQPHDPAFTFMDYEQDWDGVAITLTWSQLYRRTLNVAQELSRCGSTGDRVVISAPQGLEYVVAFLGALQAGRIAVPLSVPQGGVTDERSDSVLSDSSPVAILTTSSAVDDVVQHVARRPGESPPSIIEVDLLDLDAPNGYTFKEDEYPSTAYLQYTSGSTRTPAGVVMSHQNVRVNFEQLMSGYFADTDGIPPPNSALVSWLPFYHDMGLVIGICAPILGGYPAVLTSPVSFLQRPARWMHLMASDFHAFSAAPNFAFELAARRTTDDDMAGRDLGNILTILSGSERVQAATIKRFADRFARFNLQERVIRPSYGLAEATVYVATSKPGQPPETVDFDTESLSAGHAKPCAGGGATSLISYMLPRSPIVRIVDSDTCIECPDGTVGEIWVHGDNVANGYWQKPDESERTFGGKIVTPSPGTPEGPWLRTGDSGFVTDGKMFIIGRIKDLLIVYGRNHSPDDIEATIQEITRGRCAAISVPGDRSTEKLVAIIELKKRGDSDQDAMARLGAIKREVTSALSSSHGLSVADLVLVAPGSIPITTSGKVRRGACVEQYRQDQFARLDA

[6] = antiviral protection against BTV-induced cell death – arbovirus, BSR cells, confirmation (AID 1250); assay type: functional;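 note: protection from viral cytopathic effect measured as cell viability by ATP luminescence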
Genome polyprotein = Genome polyprotein (dengue virus type 2, UniProt P29990); test: flavivirus cap methylation enzyme inhibition – biochemical, confirmation dose response, primary screen (AID 588689); assay type: functional
[7] = viability of uninfected HEp-2 cells – cell-based, HTS, cytotoxicity control for RSV inhibitor project, dose response (AID 2410); assay type: functional; details: human respiratory syncytial virus
[8] = A cytotoxicity screen of small molecule inhibitors of the PhoP region in Salmonella typhi identified in the primary screen. [Related pubchem assays: 1850, 1864, 1985 ]; assay type: functional
[9] = Counterscreen for IDE inhibitors: Luminescence-based cell-based high throughput dose response assay to identify compounds that are cytotoxic to HEK cells. [Related pubchem assays: 434962 (Primary screen (IDE inhibitors in singlicate)), 449730 (Counterscreen (Cytotoxicity in triplicate)), 435028 (Confirmation (IDE inhibitors in triplicate)) …; assay type: functional; details: HEK293
[10] = target: T2, Voltage-gated N-type calcium channel alpha-1B subunit/Amyloid beta A4 precursor protein-binding family A member 1 (Homo sapiens, UniProt Q00975+Q02410); assay type: protein assay
[11] = target: T2, Voltage-gated N-type calcium channel alpha-1B subunit/Amyloid beta A4 precursor protein-binding family A member 1; assay type: protein assay; remark: listed apart in the source
[12] = target: DNA dC->dU-editing enzyme APOBEC-3A (Homo sapiens, UniProt P31941); test: A3A deaminase inhibition for selectivity – biochemical, dose response (AID 504722); assay type: functional
[13] = target: Glucose-6-phosphate 1-dehydrogenase (Homo sapiens, UniProt P11413); test: inhibition of Homo sapiens G6PD, dose series – biochemical, fluorescence, selectivity assay for P. falciparum G6PD inhibitor project, dose response (AID 504792); assay type: functional
Insulin-degrading enzyme = target: T3, Insulin-degrading enzyme (Homo sapiens, UniProt P14735); test: Dose Response: Fluorescence polarization-based cell-based high throughput dose response assay for inhibitors of insulin-degrading enzyme (IDE). [Related pubchem assays: 434962 (Primary screen (IDE inhibitors in singlicate)), 449730 (Counterscreen (Cytotoxicity in triplicate)), 435028 (Confirmation (IDE inhibitors in triplicate)), 434984 (Summary …; assay type: functional
T3 sequence (P14735 whole entry): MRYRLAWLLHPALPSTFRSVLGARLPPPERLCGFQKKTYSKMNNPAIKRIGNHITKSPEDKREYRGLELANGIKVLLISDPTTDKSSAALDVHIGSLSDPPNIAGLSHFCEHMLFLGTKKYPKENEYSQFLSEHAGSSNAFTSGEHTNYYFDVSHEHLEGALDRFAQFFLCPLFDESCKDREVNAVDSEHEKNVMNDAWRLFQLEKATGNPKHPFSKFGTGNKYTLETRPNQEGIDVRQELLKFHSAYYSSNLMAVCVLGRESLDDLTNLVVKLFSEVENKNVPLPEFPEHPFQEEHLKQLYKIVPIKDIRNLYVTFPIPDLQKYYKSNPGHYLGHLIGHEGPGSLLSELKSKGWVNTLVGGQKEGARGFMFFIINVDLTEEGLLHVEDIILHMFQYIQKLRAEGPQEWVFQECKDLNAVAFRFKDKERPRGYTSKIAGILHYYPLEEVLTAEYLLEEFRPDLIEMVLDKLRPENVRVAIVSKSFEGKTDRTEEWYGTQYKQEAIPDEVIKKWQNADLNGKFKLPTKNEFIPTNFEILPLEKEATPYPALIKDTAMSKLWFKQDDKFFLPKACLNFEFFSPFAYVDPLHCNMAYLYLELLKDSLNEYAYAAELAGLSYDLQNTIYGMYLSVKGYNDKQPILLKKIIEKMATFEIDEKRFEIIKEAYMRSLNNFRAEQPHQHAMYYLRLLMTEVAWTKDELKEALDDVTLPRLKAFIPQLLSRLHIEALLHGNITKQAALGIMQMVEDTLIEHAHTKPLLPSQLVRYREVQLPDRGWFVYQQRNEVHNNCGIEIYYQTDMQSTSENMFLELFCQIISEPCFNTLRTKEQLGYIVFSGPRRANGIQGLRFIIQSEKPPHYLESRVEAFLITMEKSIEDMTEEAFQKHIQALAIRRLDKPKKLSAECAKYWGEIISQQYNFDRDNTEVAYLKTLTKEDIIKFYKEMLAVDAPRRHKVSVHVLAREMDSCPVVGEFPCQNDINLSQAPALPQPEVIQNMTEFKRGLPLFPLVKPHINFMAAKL

[14] = target: T4, Histone-lysine N-methyltransferase NSD2 (Homo sapiens, UniProt O96028); assay type: biochemical
T4 sequence (O96028 whole entry): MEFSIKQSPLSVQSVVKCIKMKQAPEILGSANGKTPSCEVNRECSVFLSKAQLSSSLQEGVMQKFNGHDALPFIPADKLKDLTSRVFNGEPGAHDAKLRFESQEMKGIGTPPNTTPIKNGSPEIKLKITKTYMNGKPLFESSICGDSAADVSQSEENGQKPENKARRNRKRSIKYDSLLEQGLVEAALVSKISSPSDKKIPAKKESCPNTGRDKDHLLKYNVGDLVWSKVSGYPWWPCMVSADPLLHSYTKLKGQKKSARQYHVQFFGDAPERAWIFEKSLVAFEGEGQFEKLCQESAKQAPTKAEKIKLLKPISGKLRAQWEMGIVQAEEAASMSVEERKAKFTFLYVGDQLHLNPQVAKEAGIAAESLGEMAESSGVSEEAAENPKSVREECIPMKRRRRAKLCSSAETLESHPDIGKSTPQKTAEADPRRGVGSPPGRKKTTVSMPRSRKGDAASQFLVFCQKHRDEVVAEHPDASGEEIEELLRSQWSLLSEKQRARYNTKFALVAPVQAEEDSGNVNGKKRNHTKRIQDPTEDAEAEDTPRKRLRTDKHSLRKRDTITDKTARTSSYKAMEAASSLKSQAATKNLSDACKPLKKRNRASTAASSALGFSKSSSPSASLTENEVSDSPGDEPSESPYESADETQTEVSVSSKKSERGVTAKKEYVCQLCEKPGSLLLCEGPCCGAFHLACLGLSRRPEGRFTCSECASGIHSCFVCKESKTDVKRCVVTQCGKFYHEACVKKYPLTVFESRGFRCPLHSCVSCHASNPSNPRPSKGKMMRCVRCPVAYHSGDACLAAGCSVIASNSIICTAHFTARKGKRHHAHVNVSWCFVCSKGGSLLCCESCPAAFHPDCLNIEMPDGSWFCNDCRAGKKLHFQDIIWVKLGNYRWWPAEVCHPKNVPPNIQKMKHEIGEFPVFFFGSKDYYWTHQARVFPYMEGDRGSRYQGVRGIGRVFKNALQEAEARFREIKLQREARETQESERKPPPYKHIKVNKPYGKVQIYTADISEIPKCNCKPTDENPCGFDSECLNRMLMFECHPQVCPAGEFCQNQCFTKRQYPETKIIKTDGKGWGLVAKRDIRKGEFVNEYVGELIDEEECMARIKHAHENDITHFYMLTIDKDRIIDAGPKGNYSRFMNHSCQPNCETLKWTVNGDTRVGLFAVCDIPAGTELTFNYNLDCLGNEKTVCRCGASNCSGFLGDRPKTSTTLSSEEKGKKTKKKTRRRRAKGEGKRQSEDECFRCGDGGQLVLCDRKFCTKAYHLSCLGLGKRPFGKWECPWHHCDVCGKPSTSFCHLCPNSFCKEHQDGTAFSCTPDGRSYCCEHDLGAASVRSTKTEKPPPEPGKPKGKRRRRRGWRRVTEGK

[15] = target: T5, Rac GTPase-activating protein 1 (Homo sapiens, UniProt Q9H0H5); test: blockers of MgcRacGAP-driven Rac1 GTP hydrolysis – biochemical, ADP Hunter fluorescence, primary and confirmatory, confirmation (AID 624330); assay type: functional
T5 sequence (Q9H0H5 whole entry): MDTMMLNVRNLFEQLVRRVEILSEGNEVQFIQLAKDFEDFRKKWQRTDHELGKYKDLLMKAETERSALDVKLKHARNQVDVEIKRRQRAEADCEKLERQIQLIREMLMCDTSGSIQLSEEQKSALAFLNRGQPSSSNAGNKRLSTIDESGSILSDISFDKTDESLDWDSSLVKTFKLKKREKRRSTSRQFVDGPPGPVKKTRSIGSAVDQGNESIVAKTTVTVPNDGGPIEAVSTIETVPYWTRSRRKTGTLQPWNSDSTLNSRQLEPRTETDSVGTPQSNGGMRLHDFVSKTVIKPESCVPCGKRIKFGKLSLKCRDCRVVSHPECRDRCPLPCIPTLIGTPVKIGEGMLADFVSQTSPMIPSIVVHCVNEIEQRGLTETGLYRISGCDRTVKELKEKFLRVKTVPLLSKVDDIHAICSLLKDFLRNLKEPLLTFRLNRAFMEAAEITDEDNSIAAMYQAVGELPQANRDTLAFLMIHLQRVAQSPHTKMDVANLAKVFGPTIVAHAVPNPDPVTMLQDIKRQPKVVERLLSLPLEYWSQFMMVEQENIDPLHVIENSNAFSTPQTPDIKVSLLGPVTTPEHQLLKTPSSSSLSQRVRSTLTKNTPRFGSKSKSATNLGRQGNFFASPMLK

[16] = Luminescence Cell-Based Dose Retest to Confirm Inhibitors of Cancer Stem Cells. [Related pubchem assays (depositor defined):AID2717, AID2721]; assay type: functional, Homo sapiens; details: Homo sapiens
[17] = target: T6, Carboxy-terminal domain RNA polymerase II polypeptide A small phosphatase 1 (Homo sapiens, UniProt Q9GZU7); test: CTDSP1 inhibitors, concentration-response, biochemical, absorbance readout, ultra-high-throughput screen actives (AID 540297); assay type: functional
T6 sequence (Q9GZU7 whole entry): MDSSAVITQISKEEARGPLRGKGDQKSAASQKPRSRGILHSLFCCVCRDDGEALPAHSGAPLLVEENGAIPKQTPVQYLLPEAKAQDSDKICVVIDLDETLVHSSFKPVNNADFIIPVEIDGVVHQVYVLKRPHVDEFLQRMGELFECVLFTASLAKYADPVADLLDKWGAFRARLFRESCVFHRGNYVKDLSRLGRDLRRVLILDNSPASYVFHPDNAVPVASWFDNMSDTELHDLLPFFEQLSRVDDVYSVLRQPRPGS

T2 sequence (Q00975 whole entry): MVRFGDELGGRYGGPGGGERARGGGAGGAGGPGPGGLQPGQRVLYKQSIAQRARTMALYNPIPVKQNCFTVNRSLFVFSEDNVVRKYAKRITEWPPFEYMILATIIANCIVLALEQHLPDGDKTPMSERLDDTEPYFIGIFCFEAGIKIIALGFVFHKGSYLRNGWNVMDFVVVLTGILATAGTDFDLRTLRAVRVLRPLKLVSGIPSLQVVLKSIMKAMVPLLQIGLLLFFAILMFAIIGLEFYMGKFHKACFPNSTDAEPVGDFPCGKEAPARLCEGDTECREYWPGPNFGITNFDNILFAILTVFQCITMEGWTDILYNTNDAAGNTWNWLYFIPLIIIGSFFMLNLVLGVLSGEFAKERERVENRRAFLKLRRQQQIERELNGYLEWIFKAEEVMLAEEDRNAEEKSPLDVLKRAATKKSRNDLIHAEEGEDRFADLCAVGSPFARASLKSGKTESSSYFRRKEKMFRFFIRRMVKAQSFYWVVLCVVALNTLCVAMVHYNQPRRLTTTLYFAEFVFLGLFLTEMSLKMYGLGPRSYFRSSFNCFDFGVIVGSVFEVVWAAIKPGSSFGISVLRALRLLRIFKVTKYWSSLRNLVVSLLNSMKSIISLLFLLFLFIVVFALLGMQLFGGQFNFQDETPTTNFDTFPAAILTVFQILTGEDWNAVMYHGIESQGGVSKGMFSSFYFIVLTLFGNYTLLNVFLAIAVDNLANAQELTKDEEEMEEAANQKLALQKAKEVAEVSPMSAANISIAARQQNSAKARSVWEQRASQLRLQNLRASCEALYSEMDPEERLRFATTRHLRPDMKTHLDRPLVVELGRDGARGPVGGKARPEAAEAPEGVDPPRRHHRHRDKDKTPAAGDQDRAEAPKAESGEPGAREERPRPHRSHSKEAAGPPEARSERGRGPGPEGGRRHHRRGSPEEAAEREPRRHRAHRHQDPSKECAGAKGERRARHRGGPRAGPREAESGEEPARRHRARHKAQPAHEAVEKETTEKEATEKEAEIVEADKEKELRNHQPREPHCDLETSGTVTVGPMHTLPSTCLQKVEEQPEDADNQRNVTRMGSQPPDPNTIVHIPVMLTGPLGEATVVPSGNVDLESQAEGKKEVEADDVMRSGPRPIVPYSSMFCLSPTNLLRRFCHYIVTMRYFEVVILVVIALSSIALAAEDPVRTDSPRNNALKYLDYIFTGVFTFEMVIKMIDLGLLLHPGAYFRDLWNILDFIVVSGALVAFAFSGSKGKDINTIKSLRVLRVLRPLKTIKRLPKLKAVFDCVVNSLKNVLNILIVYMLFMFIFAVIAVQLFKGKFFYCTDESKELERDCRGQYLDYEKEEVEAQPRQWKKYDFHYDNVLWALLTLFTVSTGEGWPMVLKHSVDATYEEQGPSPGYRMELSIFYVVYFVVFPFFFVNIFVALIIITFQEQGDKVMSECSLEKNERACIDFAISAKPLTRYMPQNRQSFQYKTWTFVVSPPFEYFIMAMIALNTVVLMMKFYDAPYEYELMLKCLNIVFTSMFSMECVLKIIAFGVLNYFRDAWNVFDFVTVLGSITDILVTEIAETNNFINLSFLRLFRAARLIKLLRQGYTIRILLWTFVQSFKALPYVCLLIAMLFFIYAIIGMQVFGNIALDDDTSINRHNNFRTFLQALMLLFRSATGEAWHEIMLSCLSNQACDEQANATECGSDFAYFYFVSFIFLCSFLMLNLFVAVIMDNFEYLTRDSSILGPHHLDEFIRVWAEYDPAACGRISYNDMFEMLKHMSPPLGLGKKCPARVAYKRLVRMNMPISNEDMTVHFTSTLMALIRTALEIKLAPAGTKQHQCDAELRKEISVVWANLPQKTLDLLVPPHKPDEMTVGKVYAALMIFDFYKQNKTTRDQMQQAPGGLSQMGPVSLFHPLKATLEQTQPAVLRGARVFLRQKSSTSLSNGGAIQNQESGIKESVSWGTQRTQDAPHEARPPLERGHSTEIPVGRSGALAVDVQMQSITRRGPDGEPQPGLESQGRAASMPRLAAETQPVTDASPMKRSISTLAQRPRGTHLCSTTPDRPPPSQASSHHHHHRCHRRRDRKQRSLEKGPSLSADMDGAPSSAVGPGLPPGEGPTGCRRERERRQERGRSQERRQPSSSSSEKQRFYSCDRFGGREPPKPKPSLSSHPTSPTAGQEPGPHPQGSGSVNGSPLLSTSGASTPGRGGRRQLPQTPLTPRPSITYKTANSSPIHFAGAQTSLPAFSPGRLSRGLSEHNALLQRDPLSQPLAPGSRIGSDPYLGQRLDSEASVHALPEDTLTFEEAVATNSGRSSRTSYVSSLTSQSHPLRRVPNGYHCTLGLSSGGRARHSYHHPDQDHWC
T2 sequence (Q02410 whole entry): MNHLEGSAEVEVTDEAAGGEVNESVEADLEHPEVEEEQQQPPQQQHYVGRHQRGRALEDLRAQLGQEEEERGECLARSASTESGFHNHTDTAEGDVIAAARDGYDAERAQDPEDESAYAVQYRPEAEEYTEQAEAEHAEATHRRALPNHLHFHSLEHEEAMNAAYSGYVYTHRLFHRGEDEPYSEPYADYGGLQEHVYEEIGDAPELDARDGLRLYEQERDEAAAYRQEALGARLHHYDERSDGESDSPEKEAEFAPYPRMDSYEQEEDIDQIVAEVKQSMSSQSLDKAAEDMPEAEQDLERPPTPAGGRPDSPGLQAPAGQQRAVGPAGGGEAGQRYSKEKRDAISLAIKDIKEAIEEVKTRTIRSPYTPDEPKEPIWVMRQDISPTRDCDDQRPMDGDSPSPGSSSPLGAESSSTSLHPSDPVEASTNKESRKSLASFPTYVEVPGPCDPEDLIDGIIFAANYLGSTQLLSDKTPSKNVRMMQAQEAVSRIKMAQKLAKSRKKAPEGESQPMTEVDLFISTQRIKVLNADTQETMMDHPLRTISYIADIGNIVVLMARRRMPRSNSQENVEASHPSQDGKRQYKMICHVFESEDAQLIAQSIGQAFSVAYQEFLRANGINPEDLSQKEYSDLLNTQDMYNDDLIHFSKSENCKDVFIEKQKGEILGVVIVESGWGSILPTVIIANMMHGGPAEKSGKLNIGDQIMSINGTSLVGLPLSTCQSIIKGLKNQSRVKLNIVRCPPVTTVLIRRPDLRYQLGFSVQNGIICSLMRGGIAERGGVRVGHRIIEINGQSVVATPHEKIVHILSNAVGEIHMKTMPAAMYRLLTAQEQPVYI
Protein Rev, sequence (P05866 whole entry): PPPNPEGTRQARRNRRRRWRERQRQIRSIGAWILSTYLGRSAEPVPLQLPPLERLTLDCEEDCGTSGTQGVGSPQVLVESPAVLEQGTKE
SWI/SNF-related matrix-associated actin-dependent regulator of chromatin subfamily A member 2, sequence (P51531 whole entry): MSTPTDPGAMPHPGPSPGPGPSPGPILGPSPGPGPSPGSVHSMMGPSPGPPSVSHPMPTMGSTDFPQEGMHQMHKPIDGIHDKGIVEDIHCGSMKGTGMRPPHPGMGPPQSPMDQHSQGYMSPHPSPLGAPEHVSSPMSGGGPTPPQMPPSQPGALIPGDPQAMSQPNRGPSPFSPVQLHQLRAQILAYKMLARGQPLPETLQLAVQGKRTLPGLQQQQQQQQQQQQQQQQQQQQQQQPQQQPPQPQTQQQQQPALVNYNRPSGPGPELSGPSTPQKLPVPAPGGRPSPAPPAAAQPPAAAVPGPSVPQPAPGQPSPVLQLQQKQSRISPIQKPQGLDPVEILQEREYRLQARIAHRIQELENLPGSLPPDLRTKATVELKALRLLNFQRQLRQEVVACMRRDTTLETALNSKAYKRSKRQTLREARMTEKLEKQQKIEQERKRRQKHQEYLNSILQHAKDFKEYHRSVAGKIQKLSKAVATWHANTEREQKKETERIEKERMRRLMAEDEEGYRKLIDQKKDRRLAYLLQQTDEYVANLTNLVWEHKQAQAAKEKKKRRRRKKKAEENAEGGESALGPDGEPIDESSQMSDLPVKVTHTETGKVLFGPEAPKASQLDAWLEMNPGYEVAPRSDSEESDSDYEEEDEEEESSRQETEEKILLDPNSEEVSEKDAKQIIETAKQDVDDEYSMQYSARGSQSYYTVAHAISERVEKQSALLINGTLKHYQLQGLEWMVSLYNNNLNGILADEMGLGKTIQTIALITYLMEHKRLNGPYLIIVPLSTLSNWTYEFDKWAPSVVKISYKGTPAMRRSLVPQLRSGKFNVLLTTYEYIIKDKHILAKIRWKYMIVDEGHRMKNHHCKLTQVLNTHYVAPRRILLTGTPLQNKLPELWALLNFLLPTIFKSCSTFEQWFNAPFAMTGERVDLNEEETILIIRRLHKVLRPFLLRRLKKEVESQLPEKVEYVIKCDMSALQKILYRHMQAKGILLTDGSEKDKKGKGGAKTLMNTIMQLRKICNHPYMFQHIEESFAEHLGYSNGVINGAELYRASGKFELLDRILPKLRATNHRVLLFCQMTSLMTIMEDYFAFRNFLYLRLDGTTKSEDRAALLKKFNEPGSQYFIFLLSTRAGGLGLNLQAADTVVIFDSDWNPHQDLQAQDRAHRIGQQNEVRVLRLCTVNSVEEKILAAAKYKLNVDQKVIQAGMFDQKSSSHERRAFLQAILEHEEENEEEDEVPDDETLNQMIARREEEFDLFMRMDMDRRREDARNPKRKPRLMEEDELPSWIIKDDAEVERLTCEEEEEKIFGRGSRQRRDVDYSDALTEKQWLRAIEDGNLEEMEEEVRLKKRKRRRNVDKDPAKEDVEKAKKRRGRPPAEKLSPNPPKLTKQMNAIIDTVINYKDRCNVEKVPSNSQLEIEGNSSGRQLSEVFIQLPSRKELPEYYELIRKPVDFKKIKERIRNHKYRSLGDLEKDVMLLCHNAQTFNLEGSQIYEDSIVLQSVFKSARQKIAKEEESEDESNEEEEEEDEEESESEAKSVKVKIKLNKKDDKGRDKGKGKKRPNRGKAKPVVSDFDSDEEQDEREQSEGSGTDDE
DNA dC->dU-editing enzyme APOBEC-3A, sequence (P31941 whole entry): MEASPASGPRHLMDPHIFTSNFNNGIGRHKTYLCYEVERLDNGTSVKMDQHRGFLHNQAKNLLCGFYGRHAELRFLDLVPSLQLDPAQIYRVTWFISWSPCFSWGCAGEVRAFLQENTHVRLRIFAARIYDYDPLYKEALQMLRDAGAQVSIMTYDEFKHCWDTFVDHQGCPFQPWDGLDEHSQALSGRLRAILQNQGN

Cc1nc(Nc2ccncc2)c2oc3ccccc3c2n1
EC50 [1]: > 91.2 µM (inactive) | EC50 [2]: > 91.2 µM (inactive) | EC50 [3]: > 60 µM (not active) | EC50 [4]: 2.47 µM (active) | IC50 (Protein Rev): > 79.4 µM (not active)

COc1ccccc1NC1=NC(c2ccc(Cl)cc2)N=C(N)N1 (stereo not drawn)
IC50 (Protein Rev): > 79.4 µM (not active)

COc1ccc(OC)c(-n2c(SCC(=O)NCc3ccco3)nnc2-c2c[nH]c3ccccc23)c1
IC50 (cells): > 50 µM (active)

O=C(O)CC/C(=C\c1ccc(N2CCCC2)c([N+](=O)[O-])c1)c1nc2ccccc2s1
AC50 [5]: > 100 µM (inactive) | IC50 [6]: 27.8 µM (active) | IC50 (Genome polyprotein): 43.1 µM (active) | CC50 [7]: 33.3 µM (active)

COc1cccc(CNS(=O)(=O)c2ccc3c(c2)NC(=O)CS3)c1
EC50 [8]: > 50 µM (active)

Cc1cc(C)c2c(=O)n(CC(=O)Nc3ccc(Br)c(C)c3)sc2n1
IC50 [9]: 17.5 µM (not active) | IC50 [10]: > 56.8 µM (not active) | IC50 [11]: > 50 µM (inactive) | IC50 [12]: > 100 µM (inactive) | IC50 [13]: 49.2 µM (inactive) | IC50 (Insulin-degrading enzyme): 4.54 µM (active)

CC(=N)/C(C#N)=C(/O)COc1ccc(Cl)cc1Cl
IC50 (cells): 49.6 µM (active) | CC50 [7]: > 50 µM (active)

N#C/C(=C/c1ccc(O)c(O)c1)C(=O)NCc1ccc(Cl)cc1
AC50 [14]: 5.16 µM (active) | IC50 [15]: 34.5 µM (active) | IC50 [9]: 35.9 µM (not active) | AC50 [16]: 6.32 µM (active) | IC50 (Insulin-degrading enzyme): 11.6 µM (not active)

O=C(Cc1ccc(Br)cc1)c1ccc(O)cc1O
EC50 [8]: > 50 µM (active)

O=C(COC(=O)c1ccc(NS(=O)(=O)c2cccs2)cc1)Nc1nc2c(F)c(F)c(F)cc2s1
IC50 [17]: 4.05 µM (active) | IC50 [6]: 46.2 µM (active)
